According to ChEMBL document CHEMBL1138923, “Structure-activity relationships of 1,5-biaryl pyrroles as EP1 receptor antagonists” (Bioorg Med Chem Lett, 2006):

What was measured:
[1] = molecular target: T1, Prostaglandin E2 receptor EP1 subtype (Homo sapiens, UniProt P34995); test: Inhibition of [3H]PGE2 binding to EP1 receptor expressed in CHO cells; format: cell-based
T1 sequence (P34995 whole entry): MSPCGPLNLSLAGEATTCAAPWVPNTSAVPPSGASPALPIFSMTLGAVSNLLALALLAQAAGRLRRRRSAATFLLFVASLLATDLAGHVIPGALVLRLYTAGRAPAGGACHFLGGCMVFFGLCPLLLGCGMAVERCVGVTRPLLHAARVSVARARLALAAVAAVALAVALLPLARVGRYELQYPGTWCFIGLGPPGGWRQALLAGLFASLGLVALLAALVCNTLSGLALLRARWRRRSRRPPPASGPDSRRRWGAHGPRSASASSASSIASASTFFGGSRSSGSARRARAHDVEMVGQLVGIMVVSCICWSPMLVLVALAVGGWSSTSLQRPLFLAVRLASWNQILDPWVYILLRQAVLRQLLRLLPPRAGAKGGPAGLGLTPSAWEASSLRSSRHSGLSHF

[2] = Half life in rat at 1 mg/kg, iv; format: ADME, organism-based; set-up: dose 1 mg/kg, route intravenous; conditions: in vivo
[3] = Volume of distribution in rat at 1 mg/kg, iv; format: ADME, organism-based; set-up: dose 1 mg/kg, route intravenous; conditions: in vivo, read-out: Vss
[4] = Clearance in rat at 1 mg/kg, iv; format: ADME, organism-based; set-up: dose 1 mg/kg, route intravenous; conditions: in vivo
Cytochrome P450 (family) = Cytochrome P450 (family) (Homo sapiens, UniProt P04798+P05177+P05181+P08684+P10632+P10635+P11509+P11712+P13584+P20813+P20815+P20853+P24462+P24903+P33260+P33261+P51589+P78329+P98187+Q02928+Q08477+Q16678+Q16696+Q5TCH4+Q6VVX0+Q7Z449+Q8TAV3+Q96SQ9+Q9HB55); test: Inhibition of CYP450; format: ADME
[5] = Oral bioavailability in rat at 3 mg/kg, po; format: ADME, organism-based; conditions: in vivo
Rattus norvegicus = species: Rattus norvegicus; test: Decrease in weight bearing of left hind paw in rat FCA model of inflammatory pain 1 hr post dose; format: functional
Cytochrome P450 2C9 = Cytochrome P450 2C9 (Homo sapiens, UniProt P11712); test: Inhibition of CYP450 2C9; format: ADME
Sequence of Cytochrome P450 2C9 (P11712 whole entry): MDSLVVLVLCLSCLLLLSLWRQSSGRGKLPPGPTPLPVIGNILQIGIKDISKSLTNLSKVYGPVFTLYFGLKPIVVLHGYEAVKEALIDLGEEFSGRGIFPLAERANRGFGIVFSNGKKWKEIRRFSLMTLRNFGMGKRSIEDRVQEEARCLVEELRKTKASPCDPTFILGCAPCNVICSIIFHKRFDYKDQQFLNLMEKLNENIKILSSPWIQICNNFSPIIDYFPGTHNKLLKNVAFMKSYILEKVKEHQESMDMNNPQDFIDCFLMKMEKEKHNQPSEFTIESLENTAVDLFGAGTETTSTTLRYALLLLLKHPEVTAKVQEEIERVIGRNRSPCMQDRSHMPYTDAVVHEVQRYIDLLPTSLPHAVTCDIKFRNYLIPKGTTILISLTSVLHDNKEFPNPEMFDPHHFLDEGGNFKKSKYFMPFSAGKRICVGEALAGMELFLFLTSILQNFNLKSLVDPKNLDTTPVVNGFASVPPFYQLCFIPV

IC50 [1] [nM]	SMILES	further results
39.8	Cc1ccc(-c2cc(Cl)ccc2OCC2CCOCC2)n1-c1cccc(C(=O)O)c1	–
200	Cc1noc(C)c1COc1ccc(Br)cc1-c1ccc(C)n1-c1cccc(C(=O)O)c1	–
50.1	COc1cccc(COc2ccc(Br)cc2-c2ccc(C)n2-c2cccc(C(=O)O)c2)c1	–
25.1	O=C(O)c1cccc(-n2c(Cl)ccc2-c2cc(Cl)ccc2OCc2ccccc2)c1	–
15.8	Cc1ccc(-c2cc(Br)ccc2OCc2ccc(F)cc2Cl)n1-c1cccc(C(=O)O)c1	half-life [2]: 18 min; Vd [3]: 0.8 L/kg; clearance [4]: 48 mL/min/kg
100	Cc1ccc(-c2cc(Br)ccc2OCc2ccc(Cl)c(Cl)c2)n1-c1cccc(C(=O)O)c1	–
10	Cc1ccc(-c2cc(Br)ccc2OCc2cccc(Cl)c2)n1-c1cccc(C(=O)O)c1	–
6.31	Cc1ccc(-c2cc(Br)ccc2OCc2ccc(F)cc2)n1-c1cccc(C(=O)O)c1	IC50 (Cytochrome P450 (family)): ≥ 17000 nM; bioavailability [5]: 44%; Vd [3]: 0.7 L/kg; clearance [4]: 42 mL/min/kg; ED50 (Rattus norvegicus): 9.2 mg/kg; IC50 (Cytochrome P450 2C9): 3900 nM
15.8	Cc1ccc(-c2cc(Br)ccc2OCC2CCCC2)n1-c1cccc(C(=O)O)c1	–
12.6	Cc1ccc(-c2cc(Br)ccc2OCc2ccccc2Cl)n1-c1cccc(C(=O)O)c1	–
79.4	CCc1ccc(-c2cc(Br)ccc2OCc2ccccc2)n1-c1cccc(C(=O)O)c1	–
> 1000	Cc1c(Cl)cc(-c2cc(Cl)ccc2OCc2ccccc2)n1-c1cccc(C(=O)O)c1	–
31.6	Cc1ccc(-c2cc(C(F)(F)F)ccc2OCC2CCCCC2)n1-c1cccc(C(=O)O)c1	–
79.4	Cc1ccc(-c2cc(Br)ccc2OCc2cccc(OC(F)F)c2)n1-c1cccc(C(=O)O)c1	–
12.6	Cc1ccc(-c2cc(Br)ccc2OCc2ccc(C(F)(F)F)cc2F)n1-c1cccc(C(=O)O)c1	–
20	Cc1ccccc1COc1ccc(Br)cc1-c1ccc(C)n1-c1cccc(C(=O)O)c1	–
39.8	Cc1ccc(-c2cc(Cl)ccc2OCC2CCCO2)n1-c1cccc(C(=O)O)c1 (configuration not stated)	–
100	Cc1ccc(-c2cc(Br)ccc2OCc2c(F)cccc2C(F)(F)F)n1-c1cccc(C(=O)O)c1	–
5.01	Cc1ccc(-c2cc(C(F)(F)F)ccc2OCc2ccccc2)n1-c1cccc(C(=O)O)c1	–
631	Cc1ccc(-c2cc(-c3ccsc3)ccc2OCc2ccccc2)n1-c1cccc(C(=O)O)c1	–
2.51	Cc1ccc(COc2ccc(Br)cc2-c2ccc(C)n2-c2cccc(C(=O)O)c2)cc1	–
5.01	Cc1ccc(-c2cc(Br)ccc2OCC(C)C)n1-c1cccc(C(=O)O)c1	–
25.1	Cc1ccc(-c2cc(Cl)ccc2OCC2CCCC2)n1-c1cccc(C(=O)O)c1	–
12.6	Cc1ccc(-c2cc(Br)ccc2OCc2c(F)cccc2Cl)n1-c1cccc(C(=O)O)c1	–
126	Cc1ccc(-c2cc(Cl)ccc2OCC2CCCCC2)n1-c1cccc(C(=O)O)c1	half-life [2]: 24 min; Vd [3]: 0.5 L/kg; clearance [4]: 28 mL/min/kg

IC50 [1] [nM]	SMILES	further results
> 1000	Cc1c(-c2ccccc2)cc(-c2cc(Cl)ccc2OCc2ccccc2)n1-c1cccc(C(=O)O)c1	–
1.58	Cc1ccc(-c2cc(Br)ccc2OCc2c(F)cc(F)cc2F)n1-c1cccc(C(=O)O)c1	–
39.8	Cc1ccc(-c2cc(Br)ccc2OCc2ccc(C(F)(F)F)cc2)n1-c1cccc(C(=O)O)c1	–
6.31	Cc1ccc(-c2cc(Cl)ccc2OCc2ccc(F)cc2)n1-c1cccc(C(=O)O)c1	Vd [3]: 0.9 L/kg; clearance [4]: 48 mL/min/kg
39.8	Cc1ccc(-c2cc(Br)ccc2OCC2CCCCC2)n1-c1cccc(C(=O)O)c1	–
5.01	Cc1ccc(-c2cc(Br)ccc2OCc2ccc(F)c(F)c2)n1-c1cccc(C(=O)O)c1	–
6.31	Cc1ccc(-c2cc(Br)ccc2OCc2cccc(F)c2F)n1-c1cccc(C(=O)O)c1	–
5.01	Cc1ccc(-c2cc(Cl)ccc2OCC(C)C)n1-c1cccc(C(=O)O)c1	–
3.98	Cc1ccc(-c2cc(Cl)ccc2OCc2ccc(F)cc2F)n1-c1cccc(C(=O)O)c1	Vd [3]: 0.9 L/kg; clearance [4]: 62 mL/min/kg
251	Cc1ccc(-c2cc(Br)ccc2OCc2cccc(C(F)(F)F)c2)n1-c1cccc(C(=O)O)c1	–
100	CCc1ccc(-c2cc(Cl)ccc2OCc2ccccc2)n1-c1cccc(C(=O)O)c1	–
25.1	Cc1ccc(-c2cc(S(C)(=O)=O)ccc2OCc2ccccc2)n1-c1cccc(C(=O)O)c1	–
1	Cc1ccc(-c2cc(Br)ccc2OCc2c(F)cccc2F)n1-c1cccc(C(=O)O)c1	–
5.01	Cc1ccc(-c2cc(Br)ccc2OCc2ccc(Cl)cc2Cl)n1-c1cccc(C(=O)O)c1	–
15.8	Cc1ccc(-c2cc(Br)ccc2OCc2ccc(OC(F)(F)F)cc2)n1-c1cccc(C(=O)O)c1	–
398	Cc1ccc(-c2cc(-c3ccccc3)ccc2OCc2ccccc2)n1-c1cccc(C(=O)O)c1	–
25.1	Cc1cc(COc2ccc(Br)cc2-c2ccc(C)n2-c2cccc(C(=O)O)c2)no1	–
20	Cc1ccc(-c2ccccc2OCc2ccccc2)n1-c1cccc(C(=O)O)c1	–
794	Cc1c(Br)cc(-c2cc(Cl)ccc2OCc2ccccc2)n1-c1cccc(C(=O)O)c1	half-life [2]: 18 min; Vd [3]: 1 L/kg; clearance [4]: 54 mL/min/kg
10	Cc1ccc(-c2cc(Br)ccc2OCc2ccc(Cl)cc2)n1-c1cccc(C(=O)O)c1	half-life [2]: 12 min; Vd [3]: 0.8 L/kg; clearance [4]: 51 mL/min/kg
100	O=C(O)c1cccc(-n2c(-c3cc(Cl)ccc3OCc3ccc(F)cc3F)ccc2C(F)(F)F)c1	–
200	O=C(O)c1cccc(-n2c(-c3cc(Cl)ccc3OCc3ccc(F)cc3)ccc2C(F)(F)F)c1	–
50.1	COc1ccc(COc2ccc(Br)cc2-c2ccc(C)n2-c2cccc(C(=O)O)c2)cc1	–
7.94	Cc1ccc(-c2cc(Br)ccc2OCc2cc(F)ccc2F)n1-c1cccc(C(=O)O)c1	–
3.16	Cc1ccc(-c2cc(Br)ccc2OCc2ccccc2F)n1-c1cccc(C(=O)O)c1	–
